Experimental data as given in US7589062B2, “Two synthetic peptides for treatment and prevention of cancers” (priority 2002, dated 2009).
Where no end group is shown, it is not given here.

Key:
SP/2 cells = test: Cytolytic activity of trypsin digested fragments of AT and KT on SP/2 cells; assay type: cell-based, mouse; conditions: 10^5 SP/2 cells, 20-1.0 μg/ml, read after three days
Procedure: Biological Activity of Fragments on SP/2 cells: The cytolytic activity of the trypsin digested fragments of AT and KT were tested on 10^5 SP/2 cells. Dulbecco Modified Eagle's Medium (DMEM) containing 10% newborn calf serum (NBCS), L-glutamine and antibiotics penicillin and streptomycin was used to grow SP/2 cells. Initially, each fraction was tested on cells grown in 48 well plate at 37° C. in a humid CO2 incubator. The serum free medium containing different concentrations such as 20, 10, 5, 2.5 and 1.0 μg/ml of each fragment was tested. Control cells received PBS to serve as controls.
The tests were read after three days. […] Those fragments were considered as the active domains for cancer cell inhibitor. […] The fragment 6 for AT and the fragment 10 for KT were considered as the active domains for cytolytic activity.

CCL-13 - cancer of mouth = test: Cytolytic effect on cancer cells in culture, read microscopically; assay type: cell-based, human
SP/2 - mouse myeloma = test: as above; assay type: cell-based
SP/2 cancer cells = test: Anti cancer activity in vivo: survival of mice injected i.p. with SP/2 cancer cells (ascitic tumors); conditions: Balb/c mice, 2 million SP/2 cells i.p.; 100 μg/mouse for seven consecutive days; PBS control 23 days
Procedure: Anti Cancer Activity of Synthetic AT and KT In Vivo: Adult Balb/c mice were injected intra-peritoneally with 0.5 ml containing 2 million SP/2 cancer cells. Mice were divided into four groups. Starting from day one of post injection the mice were treated with AT and KT individually and the combination of both at 200 μg/ml concentration. Doses of 0.5 ml containing 100 μg/mouse were given for seven consecutive days and the control mice received 0.5 ml PBS.

HT-29 - cancer of colon = test: Cytolytic effect on cancer cells in culture, read microscopically; assay type: cell-based, human
Procedure: (§1) Biological cytolytic activity of AT and KT at various concentrations ranging from […], 6.25, 12.5 and 25 μg/ml were tested on human cancer cells and SP/2 mouse myeloma cells. The combination AT+KT was 50% by weight of each.

[1] = test system: HBL-100 - cancer of breast; test: as above; assay type: cell-based, human
Procedure: as §1

[2] = test system: Sk-ov-3 - cancer of ovary; test: as above; assay type: cell-based, human
Procedure: as §1

BT-20 - cancer of breast = test: as above; assay type: cell-based, human
Procedure: as §1

[3] = comparison of syn KT with syn AT

Row | Sequence | Cytolytic activity of trypsin digested fragments, ranking among fragments (SP/2 cells) | % Cytolyic cells CCL-13 (CCL-13 - cancer of mouth; 3.12 μg/ml) | % Cytolyic cells CCL-13 (CCL-13 - cancer of mouth; 6.25 μg/ml) | % Cytolyic cells CCL-13 (CCL-13 - cancer of mouth; 12.5 μg/ml) | % Cytolyic cells CCL-13 (CCL-13 - cancer of mouth; 25 μg/ml) | % Cytolyic cells SP/2 (SP/2 - mouse myeloma; 3.12 μg/ml) | % Cytolyic cells SP/2 (SP/2 - mouse myeloma; 6.25 μg/ml) | % Cytolyic cells SP/2 (SP/2 - mouse myeloma; 12.5 μg/ml) | % Cytolyic cells SP/2 (SP/2 - mouse myeloma; 25 μg/ml) | Survival (incubation period for development of ascitic tumors to cause death) (SP/2 cancer cells) | % Cytolyic cells HT-29 (HT-29 - cancer of colon; 3.12 μg/ml) | % Cytolyic cells HT-29 (HT-29 - cancer of colon; 6.25 μg/ml) | % Cytolyic cells HT-29 (HT-29 - cancer of colon; 12.5 μg/ml) | % Cytolyic cells HT-29 (HT-29 - cancer of colon; 25 μg/ml) | % Cytolyic cells HBL-100 ([1]; 3.12 μg/ml) | % Cytolyic cells HBL-100 ([1]; 6.25 μg/ml) | % Cytolyic cells HBL-100 ([1]; 12.5 μg/ml) | % Cytolyic cells HBL-100 ([1]; 25 μg/ml) | % Cytolyic cells Sk-ov-3 ([2]; 3.12 μg/ml) | % Cytolyic cells Sk-ov-3 ([2]; 6.25 μg/ml) | other results
1 | FCRFLLCPSRSLL (cysteine pairing not given here) [fragment 6 for AT] | most active |  |  |  |  |  |  |  |  |  |  |  |  |  |  |  |  |  |  |  | 
2 | PPGNQPDADSN [fragment 10 for KT] | most active |  |  |  |  |  |  |  |  |  |  |  |  |  |  |  |  |  |  |  | 
3 | FCRFLLCPSR (cysteine pairing not given here) [Atroporin] |  | 0% | 50% | 100% | 100% | 0% | 0% | 50% | 100% | 30 days | 0% | 0% | 100% | 100% | 0% | 0% | 50% | 100% | 0% | 100% | % Cytolyic cells Sk-ov-3 ([2]; 12.5 μg/ml): 100%; % Cytolyic cells Sk-ov-3 ([2]; 25 μg/ml): 100%; Cytolytic effect compared in similar concentration, Sk-ov-3 ([2]; comparison of syn AT with the other peptide): more cytolytic; % Cytolyic cells BT-20 (BT-20 - cancer of breast; 3.12 μg/ml): 0%; % Cytolyic cells BT-20 (BT-20 - cancer of breast; 6.25 μg/ml): 0%; % Cytolyic cells BT-20 (BT-20 - cancer of breast; 12.5 μg/ml): 50%; % Cytolyic cells BT-20 (BT-20 - cancer of breast; 25 μg/ml): 100%
4 | PPGNQPDADS [Kaotree] |  | 0% | 0% | 100% | 100% | 0% | 50% | 100% | 100% | 37 days | 0% | 0% | 100% | 100% | 0% | 50% | 100% | 100% | 0% | 50% | Cytolytic effect compared in similar concentration, HBL-100 [1, 3]: more cytolytic than AT; % Cytolyic cells Sk-ov-3 ([2]; 12.5 μg/ml): 100%; % Cytolyic cells Sk-ov-3 ([2]; 25 μg/ml): 100%; % Cytolyic cells BT-20 (BT-20 - cancer of breast; 3.12 μg/ml): 0%; % Cytolyic cells BT-20 (BT-20 - cancer of breast; 6.25 μg/ml): 0%; % Cytolyic cells BT-20 (BT-20 - cancer of breast; 12.5 μg/ml): 75%; % Cytolyic cells BT-20 (BT-20 - cancer of breast; 25 μg/ml): 100%; Cytolytic effect compared in similar concentration, BT-20 (BT-20 - cancer of breast; [3]): more cytolytic than AT
